For this assay, the system named is compound 48/80-induced lethality. Briefly: Protection of rats from compound 48/80-induced lethality. Format: in vivo, rat (male, inbred Wistar strain). Conditions: Rattus norvegicus; dose protecting 50% of animals; s.c. or oral, 1 hour before compound 48/80 0.5 mg/kg i.v.; survival after 4 hours; read-out: compound 48/80 lethality test in rats-ED50. An excerpt:
Protection of rats from compound 48/80-induced lethality
Compound 48/80, a mixture of oligomers obtained by condensation of 4-methoxy-N-methylbenzeneethanamine and formaldehyde has been described as a potent histamine releasing agent (Int. Arch. Allergy, 13, 336 (1958)). The protection from compound 48/80-induced lethal circulatory collapse appears to be a simple way of evaluating quantitatively the antihistaminic activity of test compounds. Male rats of an inbred Wistar strain, weighing 240-260 g were used in the experiment. After overnight starvation the rats were transferred to conditioned laboratories (temp.=21°±1° C., relative humidity=65±5%). The rats were treated subcutaneously or orally with a test compound or with the solvent (NaCl solution, 0.9%). One hour after treatment there was injected intraveneously compound 48/80, freshly dissolved in water, at a dose of 0.5 mg/kg (0.2 ml/100 g of body weight). In control experiments, wherein 250 solvent-treated animals were injected with the standard dose of compound 48/80, not more than 2.8% of the animals survived after 4 hours. Survival after 4 hours is therefore considered to be a safe criterion of a protective effect of drug administration. Said ED50 -values are the values in mg/kg body weight at which the tested compounds protect 50% of the tested animals against compound 48/80-induced lethality.

Structures are written as SMILES.

Take `CCOCCn1c(CN2CCN(CCNC(=O)c3ccoc3)CC2)nc2cccnc21` [Compound 110, N-[2-[4-[[3-(2-ethoxyethyl)-3H-imidazo[4,5-b]pyridin-2-yl]methyl]-1-piperazinyl]ethyl]-3-furancarboxamide]: the ED50 is 0.01 mg/kg.

For `CCOCCN1CCN(Cc2nc3cccnc3n2CCOCC)CC1` [Compound 42], the ED50 worked out at 0.02 mg/kg.

In the case of `CCOCCn1c(CN2CCN(CCCn3c(=O)[nH]c4ccccc43)CC2)nc2cccnc21` [Compound 77, 1-[3-[4-[[3-(2-ethoxyethyl)-3H-imidazo[4,5-b]pyridin-2-yl]methyl]-1piperazinyl]propyl]-1,3-dihydro-2H-benzimidazol-2-one], the ED50 was found to be 0.02 mg/kg.

`CCOCCn1c(CN2CCN(CCC(=O)NC(C)C)CC2)nc2cccnc21` [Compound 93, 4-[[3-(2-ethoxyethyl)-3H-imidazo[4,5-b]pyridin-2-yl]methyl]-N-(1-methylethyl)-1-piperazinepropanamide]: the ED50 is 0.01 mg/kg.

Consider `C#CCOCCn1c(CN2CCN(C)CC2)nc2cccnc21` [Compound 125, 2-[(4-methyl-1-piperazinyl)methyl]-3-[2-(2-propynyloxy)ethyl]-3H-imidazo[4,5-b]pyridine], for which the ED50 amounted to 0.02 mg/kg.

As for `CCOCCn1c(CN2CCN(CCc3c(C)nc4ccccn4c3=O)CC2)nc2cccnc21` [Compound 76, 3-[2-[4-[[3-(2-ethoxyethyl)-3H-imidazo[4,5-b]pyridin-2-yl]methyl]-1-piperazinyl]ethyl]-2-methyl-4H-pyrido[1,2-a]pyrimidin-4-one], the ED50 was found to be 0.02 mg/kg.

On to `C=CCOCCn1c(CN2CCN(C)CC2)nc2cccnc21` [Compound 126, 2-[(4-methyl-1-piperazinyl)methyl]-3-[2-(2-propenyloxy)ethyl]-3H-imidazo[4,5-b]pyridine], for which the ED50 was determined as 0.02 mg/kg.

In the case of `Cc1ccc(Cn2c(CN3CCN(C)CC3)nc3cccnc32)o1` [Compound 14, 3-[(5-methyl-2-furanyl)methyl]-2-[ (4-methyl-1-piperazinyl)methyl]-3H-imidazo[4,5-b]pyridine], the ED50 came out at 0.01 mg/kg.

With `CCOCCn1c(CN2CCN(CCCC(C)=O)CC2)nc2cccnc21` [Compound 44], the ED50 worked out at 0.005 mg/kg.

Turning to `CCOCCn1c(CN2CCN(CCc3scnc3C)CC2)nc2cccnc21` [Compound 74, 3-(2-ethoxyethyl)-2-[[4-[2-(4-methyl-5-thiazolyl)ethyl]-1-piperazinyl]methyl]-3H-imidazo[4,5-b]pyridine], the ED50 was determined as 0.01 mg/kg.

In the case of `CCOCCn1c(CN2CCN(CCNc3ncccn3)CC2)nc2cccnc21` [Compound 105, N-[2-[-4-[[3-(2-ethoxyethyl)-3H-imidazo[4,5-b]pyridin-2-yl]methyl]-1-piperazinyl]ethyl]-2-pyrimidinamine], the ED50 is 0.01 mg/kg.

For the compound `CCOCCn1c(CN2CCN(C)CC2)nc2cccnc21` [Compound 17, 3-(2-ethoxyethyl)-2-[(4-methyl-1-piperazinyl)methyl]-3H-imidazo[4,5-b]pyridine], the ED50 was found to be 0.04 mg/kg.

As for `CCOCCn1c(CN2CCN(CCNC(=O)c3cccn3C)CC2)nc2cccnc21` [Compound 111, N-[2-[4-[[3-(2-ethoxyethyl)-3H-imidazo[4,5-b]pyridin-2-yl]methyl]-1-piperazinyl]ethyl]-1-methyl-1H-pyrrole-2-carboxamide], the ED50 was 0.02 mg/kg.

For `CCOCCn1c(CN2CCN(CCc3ccc(OC)cc3)CC2)nc2cccnc21` [Compound 47], the ED50 worked out at 0.02 mg/kg.

On to `CCOCCn1c(CN2CCN(CCCOc3ccc(F)cc3)CC2)nc2cccnc21` [Compound 79, 3-(2-ethoxyethyl)-2-[[4-[3-(4-fluorophenoxy)propyl]-1-piperazinyl]methyl]-3H-imidazo[4,5-b]pyridine], for which the ED50 was determined as 0.02 mg/kg.

Take `CCOCCn1c(CN2CCN(CCc3ccccn3)CC2)nc2cccnc21` [Compound 120, 3-(2-ethoxyethyl)-2-[[4-[2-(2-pyridinyl)ethyl]-1-piperazinyl]methyl]-3H-imidazo[4,5-b]pyridine]: the ED50 came out at 0.005 mg/kg.
